What follows are compounds tested against T1, Recombinant human renin (Homo sapiens, UniProt P00797) (assay: In vitro enzymatic activity assay of renin inhibitors (fluorescence, QXL520/HiLyteFluo488 peptide substrate)). Conditions: recombinant human renin 3 nM, 1 μM substrate, pre-incubated 10 minutes at 37° C., incubation one hour, pH 7.4, 5% DMSO; read-out: IC50 of Exemplified Compounds Against Renin.
T1 construct: isolate the active form (residues 67-406); made in house; host or cells: FreeStyle 293-F cells, transient expression of pcDNA3.1(+)/hREN
T1 sequence (P00797 67-406): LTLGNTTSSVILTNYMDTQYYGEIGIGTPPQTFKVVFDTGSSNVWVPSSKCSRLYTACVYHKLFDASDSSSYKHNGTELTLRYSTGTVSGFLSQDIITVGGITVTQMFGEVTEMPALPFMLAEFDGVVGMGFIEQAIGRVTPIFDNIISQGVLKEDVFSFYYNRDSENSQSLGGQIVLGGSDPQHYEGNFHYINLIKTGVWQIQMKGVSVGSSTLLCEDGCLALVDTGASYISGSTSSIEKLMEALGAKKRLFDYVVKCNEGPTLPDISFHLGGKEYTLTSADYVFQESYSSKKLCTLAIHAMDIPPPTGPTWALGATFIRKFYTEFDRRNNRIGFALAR
Assay type: biochemical

Compound	IC50 [µM]
O=C(c1c(-c2ccccc2)n(-c2cccc(N3CCOCC3)c2)c(=O)n1Cc1cccc(OCc2ccccc2)c1)N1CCNCC1 [Example 76, 1-(3-(Benzyloxy)benzyl)-3-(3-morpholinophenyl)-4-phenyl-5-(piperazine-1-carbonyl)-1H-imidazol-2(3H)-one]	< 0.1
Cn1c(C(=O)N2CCNC[C@H]2Cc2ccccc2)c(-c2ccccc2)n(C2CCCCC2)c1=O [Example 65, (R)-4-(2-Benzylpiperazine-1-carbonyl)-1-cyclohexyl-3-methyl-5-phenyl-1H-imidazol-2(3H)-one]	< 0.1
Cc1ccccc1-n1c(-c2ccccc2)c(C(=O)N2CCNCC2)n(CCNS(=O)(=O)c2ccccc2C)c1=O [Example 208, 2-Methyl-N-(2-(2-oxo-4-phenyl-5-(piperazine-1-carbonyl)-3-o-tolyl-2,3-dihydro-1H-imidazol-1-yl)ethyl)benzenesulfonamide]	0.5 to 1
Cc1ccccc1-n1c(-c2ccccc2)c(C(=O)N2CCNCC2)n(CCCNC(=O)NC(C)C)c1=O [Example 227, 1-Isopropyl-3-(3-(2-oxo-4-phenyl-5-(piperazine-1-carbonyl)-3-o-tolyl-2,3-dihydro-1H-imidazol-1-yl)propyl)urea]	> 1
Cc1ccccc1-n1c(-c2ccccc2)c(C(=O)N2CCNCC2)n(CCCNC(=O)CC(C)C)c1=O [Example 165, 3-Methyl-N-(3-(2-oxo-4-phenyl-5-(piperazine-1-carbonyl)-3-o-tolyl-2,3-dihydro-1H-imidazol-1-yl)propyl)butanamide]	> 1
O=C(c1[nH]c(=O)n(-c2ccccc2)c1C1CC1)N1CCNCC1 [Example 24, 5-Cyclopropyl-1-phenyl-4-(piperazine-1-carbonyl)-1H-imidazol-2(3H)-one]	> 1
O=C(NCCn1c(C(=O)N2CCNCC2)c(-c2ccccc2)n(-c2cccc(N3CCOCC3)c2)c1=O)c1ccccc1 [Example 177, N-(2-(3-(3-Morpholinophenyl)-2-oxo-4-phenyl-5-(piperazine-1-carbonyl)-2,3-dihydro-1H-imidazol-1-yl)ethyl)benzamide]	0.5 to 1
COc1ccc(S(=O)(=O)NCCCn2c(C(=O)N3CCNCC3)c(-c3ccccc3)n(-c3ccccc3C)c2=O)cc1 [Example 222, 4-Methoxy-N-(3-(2-oxo-4-phenyl-5-(piperazine-1-carbonyl)-3-o-tolyl-2,3-dihydro-1H-imidazol-1-yl)propyl)benzenesulfonamide]	0.1 to 0.5
O=C(c1c(-c2ccccc2)n(C2CCCC[C@@H]2O)c(=O)n1CCCNS(=O)(=O)c1ccccc1)N1CCNCC1 (stereo partly drawn) [Example 171, N-(3-(3-((2S)-2-Hydroxycyclohexyl)-2-oxo-4-phenyl-5-(piperazine-1-carbonyl)-2,3-dihydro-1H-imidazol-1-yl)propyl)benzenesulfonamide]	> 1
COc1ccc(-c2cc(Cn3c(C(=O)N4CCNCC4)c(-c4ccccc4)n(C4CCCCC4)c3=O)ccn2)cn1 [Example 17F, 1-Cyclohexyl-3-((6′-methoxy-2,3′-bipyridin-4-yl)methyl)-5-phenyl-4-(piperazine-1-carbonyl)-1H-imidazol-2(3H)-one]	0.1 to 0.5
COCCCOc1cccc(-n2c(-c3cccc(Cl)c3)c(C(=O)N3CCNCC3)[nH]c2=O)c1 [Example 42, 5-(3-Chlorophenyl)-1-(3-(3-methoxypropoxy)phenyl)-4-(piperazine-1-carbonyl)-1H-imidazol-2(3H)-one]	> 1
COc1ccccc1-n1c(-c2ccccc2)c(C(=O)N2CCNCC2)n(CC2CCCCC2)c1=O [Example 160, 1-(Cyclohexylmethyl)-3-(2-methoxyphenyl)-4-phenyl-5-(piperazine-1-carbonyl)-1H-imidazol-2(3H)-one]	> 1
COc1cccc(Cn2c(C(=O)N3CCNCC3)c(-c3ccccc3)n([C@H]3CCCC[C@H]3O)c2=O)c1 [Example 153, 1-((1S,2R)-2-Hydroxycyclohexyl)-3-(3-methoxybenzyl)-5-phenyl-4-(piperazine-1-carbonyl)-1H-imidazol-2(3H)-one]	> 1
CC(=O)N1CCCC(n2c(-c3ccccc3)c(C(=O)N3CCNCC3)n(Cc3ccccc3)c2=O)C1 (centres unmarked) [Example 93, 1-(1-Acetylpiperidin-3-yl)-3-benzyl-5-phenyl-4-(piperazine-1-carbonyl)-1H-imidazol-2(3H)-one]	> 1
Cn1c(C(=O)N2CCNCC2)c(-c2ccccc2)n(C2CCCCC2)c1=O [Example 60, 1-Cyclohexyl-3-methyl-5-phenyl-4-(piperazine-1-carbonyl)-1H-imidazol-2(3H)-one]	> 1

Continued, values first:

IC50 [µM]	Compound
> 1	O=C(c1c(-c2ccccc2)n([C@H]2CCCC[C@H]2O)c(=O)n1Cc1ccc(F)c(F)c1)N1CCNCC1 [Example 154, 1-(3,4-Difluorobenzyl)-3-((1S,2R)-2-hydroxycyclohexyl)-4-phenyl-5-(piperazine-1-carbonyl)-1H-imidazol-2(3H)-one]
> 1	Cc1ccccc1-n1c(-c2ccccc2)c(C(=O)N2CCNCC2)n(CCNC(=O)c2ccccc2F)c1=O [Example 230, 2-Fluoro-N-(2-(2-oxo-4-phenyl-5-(piperazine-1-carbonyl)-3-o-tolyl-2,3-dihydro-1H-imidazol-1-yl)ethyl)benzamide]
> 1	O=C(c1c(-c2ccccc2)n(C2CCOCC2)c(=O)n1Cc1ccccc1)N1CCNCC1 [Example 81, 1-Benzyl-4-phenyl-5-(piperazine-1-carbonyl)-3-(tetrahydro-2H-pyran-4-yl)-1H-imidazol-2(3H)-one]
> 1	CC(=O)N1CCCC(n2c(-c3ccccc3)c(C(=O)N3CCNCC3)[nH]c2=O)C1 (centres unmarked) [Example 94, 1-(1-Acetylpiperidin-3-yl)-5-phenyl-4-(piperazine-1-carbonyl)-1H-imidazol-2(3H)-one]
> 1	COc1ccccc1-n1c(-c2ccccc2)c(C(=O)N2CCNCC2)n(Cc2ccc(F)c(F)c2)c1=O [Example 148, 1-(3,4-Difluorobenzyl)-3-(2-methoxyphenyl)-4-phenyl-5-(piperazine-1-carbonyl)-1H-imidazol-2(3H)-one]
> 1	CCOC(=O)NCCCn1c(C(=O)N2CCNCC2)c(-c2ccccc2)n(-c2ccccc2C)c1=O [Example 254, Ethyl 3-(2-oxo-4-phenyl-5-(piperazine-1-carbonyl)-3-o-tolyl-2,3-dihydro-1H-imidazol-1-yl)propylcarbamate]
> 1	COC(=O)NCCn1c(C(=O)N2CCNCC2)c(-c2ccccc2)n(-c2ccccc2C)c1=O [Example 249, Methyl 2-(2-oxo-4-phenyl-5-(piperazine-1-carbonyl)-3-o-tolyl-2,3-dihydro-1H-imidazol-1-yl)ethylcarbamate]
0.5 to 1	COc1ccc(C(=O)NCCn2c(C(=O)N3CCNCC3)c(-c3ccccc3)n(-c3ccccc3C)c2=O)cc1 [Example 235, 4-Methoxy-N-(2-(2-oxo-4-phenyl-5-(piperazine-1-carbonyl)-3-o-tolyl-2,3-dihydro-1H-imidazol-1-yl)ethyl)benzamide]
< 0.1	O=C(c1[nH]c(=O)n(-c2ccc3c(c2)NCCC3)c1-c1ccccc1)N1CCNC[C@H]1Cc1ccccc1 [Example 132, (R)-4-(2-Benzylpiperazine-1-carbonyl)-5-phenyl-1-(1,2,3,4-tetrahydroquinolin-7-yl)-1H-imidazol-2(3H)-one]
0.5 to 1	COc1ccccc1NC(=O)NCCn1c(C(=O)N2CCNCC2)c(-c2ccccc2)n(-c2ccccc2C)c1=O [Example 214, 1-(2-Methoxyphenyl)-3-(2-(2-oxo-4-phenyl-5-(piperazine-1-carbonyl)-3-o-tolyl-2,3-dihydro-1H-imidazol-1-yl)ethyl)urea]
> 1	Cc1ccccc1-n1c(-c2ccccc2)c(C(=O)N2CCNCC2)n(CCNS(=O)(=O)c2cccc(Cl)c2)c1=O [Example 205, 3-Chloro-N-(2-(2-oxo-4-phenyl-5-(piperazine-1-carbonyl)-3-o-tolyl-2,3-dihydro-1H-imidazol-1-yl)ethyl)benzenesulfonamide]
0.1 to 0.5	Cc1ccccc1-n1c(-c2ccccc2)c(C(=O)N2CCNCC2)n(Cc2cccc(Oc3ccccc3)c2)c1=O [Example 142, 1-(3-Phenoxybenzyl)-4-phenyl-5-(piperazine-1-carbonyl)-3-o-tolyl-1H-imidazol-2(3H)-one]
> 1	O=C(c1ccco1)N1CCCC(n2c(-c3ccccc3)c(C(=O)N3CCNCC3)n(Cc3ccccc3)c2=O)C1 (centres unmarked) [Example 97, 1-Benzyl-3-(1-(furan-2-carbonyl)piperidin-3-yl)-4-phenyl-5-(piperazine-1-carbonyl)-1H-imidazol-2(3H)-one]
0.1 to 0.5	O=C(c1c(-c2ccccc2)n(-c2ccccc2)c(=O)n1Cc1ccccc1)N1CCNCC1 [Example 45, 1-Benzyl-3,4-diphenyl-5-(piperazine-1-carbonyl)-1H-imidazol-2(3H)-one]
> 1	COCCCOc1cccc(-n2c(-c3ccccc3)c(C(=O)N3CCNCC3)[nH]c2=O)n1 [Example 36, 1-(6-(3-Methoxypropoxy)pyridin-2-yl)-5-phenyl-4-(piperazine-1-carbonyl)-1H-imidazol-2(3H)-one]
0.5 to 1	O=C(NC[C@@H]1CNCCN1C(=O)c1[nH]c(=O)n([C@@H]2CCCC[C@H]2O)c1-c1ccccc1)c1ccccc1 [Example 107, N—(((S)-1-(1-((1R,2R)-2-Hydroxycyclohexyl)-2-oxo-5-phenyl-2,3-dihydro-1H-imidazole-4-carbonyl)piperazin-2-yl)methyl)benzamide]
0.1 to 0.5	COc1cccc(NC(=O)NCCn2c(C(=O)N3CCNCC3)c(-c3ccccc3)n(-c3ccccc3C)c2=O)c1 [Example 215, 1-(3-Methoxyphenyl)-3-(2-(2-oxo-4-phenyl-5-(piperazine-1-carbonyl)-3-o-tolyl-2,3-dihydro-1H-imidazol-1-yl)ethyl)urea]
